Tests used:
Assay type in all cases: in vivo
[1] = system: common chickweed (Stellaria media); experiment: Preemergence herbicidal activity, chickweed; details: Rate of Application 0.3 Kg/Ha, examined after 12-17 days
[2] = system: Johnsongrass (Sorghum halepense); experiment: Preemergence herbicidal activity, johnsongrass; details: Rate of Application 0.3 Kg/Ha, examined after 12-17 days
[3] = system: field corn (Zea mays var. Pioneer 3732); experiment: Preemergence herbicidal activity, corn; details: Rate of Application 0.3 Kg/Ha, examined after 12-17 days
[4] = system: velvetleaf (Abutilon theophrasti); experiment: Preemergence herbicidal activity, velvetleaf; details: Rate of Application 0.3 Kg/Ha, examined after 12-17 days
[5] = system: common cocklebur (Xanthium strumarium L.); experiment: Postemergence herbicidal activity, cocklebur; details: rate of application 0.3 Kg/Ha, rated after 12-17 days
[6] = system: morningglory (Ipomea lacunosa or Ipomea hederacea); experiment: Preemergence herbicidal activity, morningglory; details: Rate of Application 0.3 Kg/Ha, examined after 12-17 days
[7] = system: blackgrass (Aloepecurus myosuroides); experiment: Preemergence herbicidal activity, blackgrass; details: Rate of Application 0.3 Kg/Ha, examined after 12-17 days
[8] = system: blackgrass (Aloepecurus myosuroides); experiment: Postemergence herbicidal activity, blackgrass; details: rate of application 0.3 Kg/Ha, rated after 12-17 days
[9] = system: Johnsongrass (Sorghum halepense); experiment: Postemergence herbicidal activity, johnsongrass; details: rate of application 0.3 Kg/Ha, rated after 12-17 days
[10] = system: common cocklebur (Xanthium strumarium L.); experiment: Preemergence herbicidal activity, cocklebur; details: Rate of Application 0.3 Kg/Ha, examined after 12-17 days
[11] = system: wheat (Triticum aestivum var. Lew); experiment: Preemergence herbicidal activity, wheat; details: Rate of Application 0.3 Kg/Ha, examined after 12-17 days
[12] = system: field corn (Zea mays var. Pioneer 3732); experiment: Postemergence herbicidal activity, corn; details: rate of application 0.3 Kg/Ha, rated after 12-17 days
[13] = system: common chickweed (Stellaria media); experiment: Postemergence herbicidal activity, chickweed; details: rate of application 0.3 Kg/Ha, rated after 12-17 days
[14] = system: wheat (Triticum aestivum var. Lew); experiment: Postemergence herbicidal activity, wheat; details: rate of application 0.3 Kg/Ha, rated after 12-17 days
[15] = system: green foxtail (Setaria viridis); experiment: Preemergence herbicidal activity, green foxtail; details: Rate of Application 0.3 Kg/Ha, examined after 12-17 days
[16] = system: green foxtail (Setaria viridis); experiment: Postemergence herbicidal activity, green foxtail; details: rate of application 0.3 Kg/Ha, rated after 12-17 days
[17] = system: soybean (Glycine max var. Winchester); experiment: Preemergence herbicidal activity, soybean; details: Rate of Application 0.3 Kg/Ha, examined after 12-17 days
[18] = system: velvetleaf (Abutilon theophrasti); experiment: Postemergence herbicidal activity, velvetleaf; details: rate of application 0.3 Kg/Ha, rated after 12-17 days
[19] = system: morningglory (Ipomea lacunosa or Ipomea hederacea); experiment: Postemergence herbicidal activity, morningglory; details: rate of application 0.3 Kg/Ha, rated after 12-17 days
[20] = system: soybean (Glycine max var. Winchester); experiment: Postemergence herbicidal activity, soybean; details: rate of application 0.3 Kg/Ha, rated after 12-17 days

SMILES | PREEMERGENCE HERBICIDAL ACTIVITY (% CONTROL) STEME [1] [%] | PREEMERGENCE HERBICIDAL ACTIVITY (% CONTROL) SORHA [2] [%] | PREEMERGENCE HERBICIDAL ACTIVITY (% CONTROL) CRN [3] [%] | PREEMERGENCE HERBICIDAL ACTIVITY (% CONTROL) ABUTH [4] [%] | Postemergence herbicidal activity (% control) XANPE [5] [%] | PREEMERGENCE HERBICIDAL ACTIVITY (% CONTROL) IPOSS [6] [%] | PREEMERGENCE HERBICIDAL ACTIVITY (% CONTROL) ALOMY [7] [%] | Postemergence herbicidal activity (% control) ALOMY [8] [%] | Postemergence herbicidal activity (% control) SORHA [9] [%] | PREEMERGENCE HERBICIDAL ACTIVITY (% CONTROL) XANPE [10] [%] | PREEMERGENCE HERBICIDAL ACTIVITY (% CONTROL) WHT [11] [%] | Postemergence herbicidal activity (% control) CRN [12] [%] | Postemergence herbicidal activity (% control) STEME [13] [%] | Postemergence herbicidal activity (% control) WHT [14] [%] | PREEMERGENCE HERBICIDAL ACTIVITY (% CONTROL) SETVI [15] [%] | Postemergence herbicidal activity (% control) SETVI [16] [%] | PREEMERGENCE HERBICIDAL ACTIVITY (% CONTROL) SOY [17] [%] | Postemergence herbicidal activity (% control) ABUTH [18] [%] | Postemergence herbicidal activity (% control) IPOSS [19] [%] | Postemergence herbicidal activity (% control) SOY [20] [%]
Cn1c(C(F)(F)F)cc(=O)n(-c2c(F)cc(Br)c3oc(N)nc23)c1=O [Compound 98] | 70 | 65 | 80 | 80 | 20 | 75 | 10 | 5 | 20 | 60 | 40 | 50 | 5 | 10 | 30 | 40 | 50 | 60 | 20 | 40
Cn1c(C(F)(F)F)cc(=O)n(-c2c(F)cc(Cl)c3cc(CCCl)oc23)c1=O [Compound 236] | 100 | 100 | 95 | 100 | 100 | 100 | 80 | 80 | 100 | 100 | 70 | 90 | 100 | 75 | 100 | 100 | 100 | 100 | 100 | 100
Cn1c(C(F)(F)F)cc(=O)n(-c2c(F)cc(Cl)c3[nH]c(C(F)(F)Cl)nc23)c1=O [Compound 366] | 0 | 40 | 0 | 70 | 100 | 20 | 0 | 30 | 50 | 10 | 10 | 80 | 30 | 30 | 50 | 50 | 10 | 95 | 80 | 70
COC(C)(C)c1cc2c(Cl)ccc(-n3c(=O)cc(C(F)(F)F)n(C)c3=O)c2o1 [Compound 251] | 95 | 100 | 95 | 100 | 95 | 100 | 90 | 100 | 95 | 100 | 90 | 90 | 100 | 70 | 100 | 100 | 90 | 100 | 100 | 95
COCc1nc2c(-n3c(=O)cc(C(F)(F)F)n(C)c3=O)c(F)cc(Cl)c2[nH]1 [Compound 370] | 100 | 100 | 95 | 100 | 100 | 100 | 90 | 100 | 100 | 100 | 100 | 100 | 100 | 95 | 100 | 100 | 100 | 100 | 100 | 100

From patent publication US6352958B1, “Cycloimido-substituted benzofused heterocyclic herbicides” (FMC Corporation, priority 1997, dated 2002)
